According to paper PMC3606667 (Journal of natural products, 2013):
Read-outs that look alike come from different tables or passages of the source.

Key:
[1] = biological target: NF-κB (p65) (Homo sapiens, UniProt Q04206); experiment: Enzyme-based ELISA NF-κB; format: biochemical; settings: for NF-κB (p65) inhibitory activity (in words): ELISA assay; for times more potent than the control compound rocaglamide in NF-κB (p65) assay: relative to rocaglamide
[2] = tested on: human monocytic leukemia cell line MONO-MAC-1; settings: cited from earlier work
[3] = tested on: human monocytic leukemia cell line MONO-MAC-6; settings: cited from earlier work
[4] = tested on: HT-29 human colon cancer cells; experiment: Cytotoxicity against HT-29 human colon cancer cells; format: cell-based; settings: relative to perviridisin B (2), ED50 0.46 µM
[5] = tested on: CCD-112CoN normal colon cell line; experiment: Cytotoxicity against CCD-112CoN normal colon cell line; format: cell-based; settings: read-out: CCD112CoNl ED50
[6] = tested on: LNCaP human prostate cancer cells; settings: cited from earlier work
[7] = NF-κB (p65) ED50, ELISA assay, ED50 > 20 µM inactive

NF-κB (p65), sequence (Q04206 whole entry): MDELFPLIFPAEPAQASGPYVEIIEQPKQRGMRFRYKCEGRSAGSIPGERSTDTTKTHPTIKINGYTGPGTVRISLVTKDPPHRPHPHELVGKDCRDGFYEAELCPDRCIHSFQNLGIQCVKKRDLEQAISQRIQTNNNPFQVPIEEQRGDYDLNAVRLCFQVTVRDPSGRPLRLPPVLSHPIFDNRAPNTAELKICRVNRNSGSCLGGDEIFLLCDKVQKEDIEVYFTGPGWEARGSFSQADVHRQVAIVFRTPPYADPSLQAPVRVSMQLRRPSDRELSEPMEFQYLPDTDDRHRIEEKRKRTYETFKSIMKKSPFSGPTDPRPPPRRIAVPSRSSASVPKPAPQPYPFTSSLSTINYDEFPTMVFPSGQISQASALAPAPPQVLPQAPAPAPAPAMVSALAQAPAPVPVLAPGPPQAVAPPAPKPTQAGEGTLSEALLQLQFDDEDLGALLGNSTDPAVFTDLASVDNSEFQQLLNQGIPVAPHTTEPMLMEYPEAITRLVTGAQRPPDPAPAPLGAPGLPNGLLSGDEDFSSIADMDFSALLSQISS

COc1ccc(-c2oc3cc(OC)cc(OC)c3c(=O)c2O)cc1 [5,7,4′-tri-O-methylkaempferol]
IC50 [1]: > 20 µM

COc1ccc([C@@]23Oc4cc(OC)cc(OC)c4[C@]2(OC)[C@H](O)C[C@H]3c2ccccc2)cc1 [8b-O-methylrocaglaol]
IC50 [1, 7]: > 20 µM | cytotoxicity result in MONO-MAC-1 [2]: negative result | cytotoxicity result in MONO-MAC-6 [3]: negative result

COc1ccc([C@]23Oc4cc(OC)cc(OC)c4[C@](O)(C2O)[C@@H](c2ccccc2)[C@@H]3C(=O)NCCCCNC(=O)/C(C)=C/CO)cc1 (stereo partly shown) [Compound 1, perviridisin A]
times less active than its C-10 epimer perviridisin B (2) against HT-29 cells [4]: over 25 times | IC50 [1, 7]: > 20 µM

COc1ccc([C@]23Oc4cc(OC)cc(OC)c4[C@](O)(C2O)[C@@H](c2ccccc2)[C@@H]3C(=O)NCCCCNC(=O)/C(C)=C/CO)cc1 (stereo partly shown) [Compound 2, perviridisin B]
CC50 [5]: > 50 µM | NF-κB (p65) inhibitory activity (in words) [1]: significant NF-κB (p65) inhibitory activity | IC50 ([1]; NF-κB (p65) ED50): 2.4 µM

COc1cc(OC)c2c(c1)O[C@@]1(c3ccc4c(c3)OCO4)[C@H](c3ccccc3)C[C@@H](O)[C@@]21OC [Compound 3, 8b-O-methyl-4′-demethoxy-3′,4′-methylenedioxyrocaglaol]
CC50 [5]: > 50 µM | IC50 [1, 7]: > 20 µM

COC(=O)[C@H]1[C@@H](O)[C@@]2(OC)c3c(OC)cc(OC)cc3O[C@@]2(c2ccc3c(c2)OCO3)[C@@H]1c1ccccc1 [Compound 4, methyl 8b-O-methyl-4′-demethoxy-3′,4′-methylenedioxyrocaglate]
CC50 [5]: > 50 µM | IC50 [1, 7]: > 20 µM

COc1ccc([C@@]23Oc4cc(OC)cc(OC)c4[C@]2(O)[C@H](O)C[C@H]3c2ccccc2)cc1 [Compound 9, rocaglaol]
CC50 [5]: > 50 µM | IC50 [1]: 0.005 µM | NF-κB (p65) inhibitory activity (in words) [1]: significant NF-κB (p65) inhibitory activity | times more potent than the control compound rocaglamide in NF-κB (p65) assay [1]: more than 10 times | effect on LNCaP cells (cell cycle, apoptosis) [6]: cause G2/M-phase cell cycle arrest and to induce apoptosis

COC(=O)[C@H]1[C@@H](O)[C@@]2(O)c3c(OC)cc(OC)cc3O[C@@]2(c2ccc(OC)cc2)[C@@H]1c1ccccc1 [Compound 10, methyl rocaglate]
CC50 [5]: > 50 µM | IC50 [1, 7]: > 20 µM

COc1cc(OC)c2c(c1)O[C@@]1(c3ccc4c(c3)OCO4)[C@H](c3ccccc3)C[C@@H](O)[C@@]21O [Compound 11, 4′-demethoxy-3′,4′-methylenedioxyrocaglaol]
CC50 [5]: > 50 µM | IC50 [1]: 0.33 µM | NF-κB (p65) inhibitory activity (in words) [1]: significant NF-κB (p65) inhibitory activity

COC(=O)[C@H]1[C@@H](O)[C@@]2(O)c3c(OC)cc(OC)cc3O[C@@]2(c2ccc3c(c2)OCO3)[C@@H]1c1ccccc1 [Compound 12, methyl 4′-demethoxy-3′,4′-methylenedioxyrocaglate]
CC50 [5]: > 50 µM | IC50 [1]: 3.54 µM | NF-κB (p65) inhibitory activity (in words) [1]: significant NF-κB (p65) inhibitory activity

COc1ccc([C@@]23Oc4cc(OC)cc(OC)c4[C@]2(O)[C@H](O)[C@H](C(N)=O)[C@H]3c2ccccc2)cc1 [Compound 13, didesmethylrocaglamide]
CC50 [5]: > 50 µM | IC50 [1, 7]: > 20 µM

COC(=O)[C@H]1[C@@H](OC=O)[C@@]2(O)c3c(OC)cc(OC)cc3O[C@@]2(c2ccc3c(c2)OCO3)[C@@H]1c1ccccc1 [Compound 14, methyl 1-formyloxy-4′-demethoxy-3′,4′-methylenedioxyrocaglate]
CC50 [5]: > 50 µM

COC(=O)[C@H]1[C@@H](OC=O)[C@@]2(O)c3c(OC)cc(OC)cc3O[C@@]2(c2ccc(OC)cc2)[C@@H]1c1ccccc1 [Compound 15, methyl 1-formyloxyrocaglate]
CC50 [5]: > 50 µM | IC50 [1, 7]: > 20 µM

COC(=O)[C@H]1[C@@H](O)[C@@]2(OC)c3c(OC)cc(OC)cc3O[C@@]2(c2ccc(OC)cc2)[C@@H]1c1ccccc1 [Compound 16, methyl 8b-O-methylrocaglate]
CC50 [5]: > 50 µM | IC50 [1, 7]: > 20 µM | cytotoxicity result in MONO-MAC-1 [2]: negative result | cytotoxicity result in MONO-MAC-6 [3]: negative result

CC(C)[C@H]1CC[C@]2(C)C(=O)CCC(C=O)=C[C@H]12 [Compound 17, 2-oxaisodauc-5-en-12-al]
IC50 [1]: 0.005 µM | NF-κB (p65) inhibitory activity (in words) [1]: significant NF-κB (p65) inhibitory activity | times more potent than the control compound rocaglamide in NF-κB (p65) assay [1]: more than 10 times

CC(C)=C[C@H](O)[C@@H](O)[C@@H](CO)[C@H]1CC[C@@]2(C)[C@@H]3CC[C@H]4C(C)(C)[C@@H](O)CC[C@@]45C[C@@]35CC[C@]12C [argenteanol]
IC50 [1, 7]: > 20 µM

CC1(C)[C@H](O)CC[C@]2(C)[C@H]3CC[C@@H]4[C@@H]([C@]5(C)CCC(=O)O5)CC[C@@]4(C)[C@]3(C)CC[C@@H]12 [cabraleahydroxylactone]
IC50 [1, 7]: > 20 µM

CC1=CC(O)N(CCCCNC(=O)/C=C/c2ccccc2)C1=O (stereo not shown) [gigantamide A]
IC50 [1]: > 20 µM

COc1ccc([C@@]23Oc4cc(OC)cc(OC)c4[C@]2(O)[C@H](O)[C@H](C(=O)N(C)C)[C@H]3c2ccccc2)cc1 [rocaglamide, reference compound]
CC50 [5]: > 50 µM

COc1cc2ccc(=O)oc2cc1O [scopoletin]
IC50 [1, 7]: > 20 µM
